We go through 4 compounds from patent US20060003016A1, “Therapeutic method for endolymphatic hydrops associated diseases” (priority 2004, published 2006).

One experiment concerns guinea pig. The settings on record: after administration of AVP; cited from earlier work.
The next experiment has as its system rats. To be noted: arginine-vasopressin induced rats; cited from earlier work.
In experiment [1] the test system is patients with Meniere's disease and endolymphatic hydrops associated diseases. In words: Clinical course of vertigo, aural fullness, tinnitus and hearing in clinical cases. The class given is in vivo, patient. From the text: Therapeutic method of our invention is always performed after general examinations and standard laboratory examinations, such as blood pressure, plasma electrolytes, and urine osmolality. After consideration of body weight, age, sex, and life style, we directed the patients to take adequate water (see below) every day in combination with short-term application with isosorbite®. During the initial stage of the water intake method, recommended volume of water intake for adult male, weighing 60 kg, is calculated as 1.8-2.1 l per day according to the following formula (F 1). […] They seem to be nervous and live under the very strong psychological pressure.
The present invention is explained in detail by mentioning clinical cases.

Where [2] appears, read: case 3, isosorbide 63 g t.d.s. and difenidol hydrochloride 75 mg t.d.s. together for 6 days, July 28, 2000.
Where [3] appears, read: case 3, isosorbide 63 g t.d.s. and difenidol hydrochloride 75 mg t.d.s. together for 14 days, March 2000.

Each structure is given as a SMILES string. Structures can show the parent of a compound that is named as a salt.

For `NC(=O)CC[C@@H]1NC(=O)[C@H](Cc2ccccc2)NC(=O)[C@H](Cc2ccc(O)cc2)NC(=O)[C@@H](N)CSSC[C@@H](C(=O)N2CCC[C@H]2C(=O)N[C@@H](CCCN=C(N)N)C(=O)NCC(N)=O)NC(=O)[C@H](CC(N)=O)NC1=O` [AVP, arginine vasopressin], the endolymphatic hydrops entry with guinea pig was “endolymphatic hydrops was produced”. Also, the “ABR (auditory brainstem evoked response) threshold” value with rats is on record as “increase in ABR (auditory brainstem evoked response) threshold”.
Take `CCCCC[C@H](O)/C=C/[C@H]1[C@H](O)CC(=O)[C@@H]1CCCCCCC(=O)O` [PGE1, reference compound]: the “low frequency sensorineural hearing loss of the left ear” value in experiment [1] (case 5, steroid, VB12 and vasodilator (prostaglandin:PGE1) together) is “no improvement”.
Consider `OC(CCCN1CCCCC1)(c1ccccc1)c1ccccc1` [difenidol hydrochloride, reference compound], for which the left hearing result in experiment [1] (setting [2]) is recorded as “improved to normal range”; in experiment [1] (setting [3]), “improved”.
Consider `O[C@@H]1CO[C@H]2[C@@H]1OC[C@@H]2O` [isosorbide, reference compound], for which the “time until rotatory vertigo was improved” value in experiment [1] (case 1, attack of Jan. 24, 2003, isosorbide 63 g t.d.s. with water intake 2 lit./day continued) is no more than 3 h. Moreover, in experiment [1] (case 1, isosorbide 63 g t.d.s. for one week, reexamination Dec. 6, 2002), the right ear hearing result is “improved to the normal level”. Besides, the left hearing result in experiment [1] (setting [2]) is “improved to normal range”; in experiment [1] (setting [3]), “improved”. In addition, the right hearing entry in experiment [1] (case 4, isosorbide 63 g t.d.s. orally for 2 weeks) is on record as “no improvement”.
